The values below come from patent US11046714B2, “2,2-difluorodioxolo A2A receptor antagonists” (Merck Sharp & Dohme Corp., priority 2013, dated 2021).

For the assay, the target named is human A2A receptor (Homo sapiens (Human), UniProt P29274). Nature of the assay: competition binding assay using Scintillation Proximity technology. The conditions noted are these: membranes from CHO-K1 cells expressing the human A2a receptor; 2.0 nM tritiated compound; Cheng-Prusoff. Here is the method:
The utility of the compounds in accordance with the present invention as A2A receptor antagonists may be readily determined without undue experimentation by methodologies well known in the art, including by a competition binding assay using Scintillation Proximity technology. Briefly, membranes from CHO-K1 cells expressing the human A2A receptor are incubated with a test compound at various concentrations, e.g., ranging from 3000 nM to 0.15 nM, in a reaction mixture also containing a tritiated form of 5-amino-7-[2-phenethyl]-2-(furan-2-yl)-7H-pyrazolo[4,3-e][1,2,4]triazolo[1,5-c]pyrimidine (the tritiated compound) and wheatgerm agglutin-coated yttrium silicate SPA beads at room temperature. The beads are then allowed to settle to the bottom of the wells, after which the membrane-associated radioactivity is determined by scintillation counting in a microplate reader. Ki values can be determined using the Cheng-Prusoff equation.
Thus, 1.0 μg of membranes from CHO-K1 cells expressing the human A2a receptor were incubated with a compound of the invention at concentrations ranging from 3000 nM to 0.15 nM in a reaction mixture also containing 2.0 nM of a tritiated form of 5-amino-7-[2-phenethyl]-2-(furan-2-yl)-7H-pyrazolo[4,3-e][1,2,4]triazolo[1,5-c]pyrimidine (the tritiated compound) and 100 μg of wheatgerm agglutin-coated yttrium silicate SPA beads for one hour at room temperature with agitation. The beads were then allowed to settle to the bottom of the wells for 1 hr, after which the membrane-associated radioactivity was determined by scintillation counting in a TopCount microplate reader. Ki values were determined using the Cheng-Prusoff equation.
Summary of Materials and Methods Used in A2a Activity Determination:
• Membranes from CHO-K1 cells expressing the human Adenosine2A receptor (Perkin-Elmer #RBHA2AM400UA). • The tritiated compound was prepared according to published methods. • Wheatgerm agglutinin-coated yttrium silicate SPA beads (GE Healthcare #RPNQ0023). Dilute to 25 mg/ml in Assay Buffer. • Assay Buffer: Dulbecco's calcium and magnesium free phosphate buffered saline+10 mM MgCl2 • Adenosine deaminase (ADA) from calf intestine, 10 mg/2 ml (Roche #10 102 105 001). • DMSO • A2a antagonist standard (9-chloro-1-(2-furanyl)-[1,2,4]triazolo[1,5-c]quinazolin-5-amine from Tocris Bioscience) Compound Dilution • Make eight 1:3 serial dilutions in 100% DMSO from a 3 mM compound stock. • Transfer 50 nL of compound into a 384-well OptiPlate (Perkin Elmer). • Typically, final concentrations of compound used in the assay ranged from 3000 nM to 0.152 nM. Radioisotope • Dilute a solution of the tritiated compound to 5.0 nM in assay buffer. This is a 2.5× solution. The final concentration in the assay is 2.0 nM. Calculate the concentration by counting two 5 μL aliquots. Membrane Preparation • Use 1.0 μg of membrane/well. Dilute membranes to 33 μg/mL in assay buffer. Treat with 20 μg/mL ADA for 15 minutes at room temperature to degrade endogenous adenosine. Membrane-Bead Mixture • Use 100 μg/well wheatgerm agglutinin-coated yttrium silicate SPA beads. • Mix ADA-treated membranes and SPA beads together for 30 min prior to assay. Assay Assembly • To the Perkin-Elmer Optiplate-384 containing the compound titration add 20 μL of 2.5× solution of the tritiated compound and 30 μL of the membrane-bead mixture. Incubate for one hour at room temperature with agitation. • Include total binding (assay buffer+1% DMSO) and non-specific binding (CGS 15943, 1 μM) wells. Counting • Allow the beads to settle for one hour. • Count in TopCount. Calculations • A curve fitting program (i.e., Prism, Activity Base, Chemcart) is used to determine the EC50. The Ki value is calculated using the Cheng-Prusoff equation. Ki=EC50/(1+(radioligand concentration/Kd))
(In general: SPA uses beads or plates that emit light when radiolabelled molecules are held near them.)

SMILES strings stand for the structures.

human A2A receptor, sequence (P29274 whole entry): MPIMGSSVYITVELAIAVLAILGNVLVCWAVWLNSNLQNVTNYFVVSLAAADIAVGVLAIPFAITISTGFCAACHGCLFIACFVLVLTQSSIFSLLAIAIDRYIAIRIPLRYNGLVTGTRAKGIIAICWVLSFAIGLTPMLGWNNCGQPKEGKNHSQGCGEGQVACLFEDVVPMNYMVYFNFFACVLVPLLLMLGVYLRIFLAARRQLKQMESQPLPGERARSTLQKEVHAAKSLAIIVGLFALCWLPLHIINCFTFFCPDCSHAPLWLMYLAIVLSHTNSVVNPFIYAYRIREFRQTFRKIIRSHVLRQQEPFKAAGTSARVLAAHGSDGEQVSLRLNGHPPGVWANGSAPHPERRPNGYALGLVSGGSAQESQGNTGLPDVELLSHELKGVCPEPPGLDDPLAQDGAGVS

`Nc1nc2c3c(ccc2c2nc(CCN4CCCC(O)(C(F)(F)F)C4)nn12)OC(F)(F)O3` (single isomer, unassigned) [Example 70, (R or S)-1-(2-(5-amino-2,2-difluoro-[1,3]dioxolo[4,5-h][1,2,4]triazolo[1,5-c]quinazolin-8-yl)ethyl)-3-(trifluoromethyl)piperidin-3-ol] yielded a Ki of 5.2 nM.

On to `Nc1nc2c3c(ccc2c2nc(CN4CCC(Oc5ccc(F)cc5)CC4)nn12)OC(F)(F)O3` [Example 117, 2,2-difluoro-8-{[4-(4-fluorophenoxy)piperidin-1-yl]methyl}[1,3]dioxolo [4,5-h][1,2,4]triazolo[1,5-c]quinazolin-5-amine], for which affinity was put at a Ki of 4.9 nM. Under `Nc1nc2c3c(ccc2c2nc(CCN4Cc5ccncc5C4)nn12)OC(F)(F)O3` [Example 11, 8-[2-(1,3-dihydro-2H-pyrrolo[3,4-c]pyridin-2-yl)ethyl]-2,2-difluoro[1,3] dioxolo[4,5-h][1,2,4]triazolo [1,5-c]quinazolin-5-amine] stands 2.1 nM; under `CC1=CCN(CCc2nc3c4ccc5c(c4nc(N)n3n2)OC(F)(F)O5)CC1` [Example 41, 2,2-difluoro-8-[2-(4-methyl-3,6-dihydropyridin-1(2H)-yl)ethyl][1,3]dioxolo[4,5-h][1,2,4]triazolo[1,5-c]quinazolin-5-amine], 3.8 nM; under `Nc1nc2c3c(ccc2c2nc(CCCN4Cc5cccnc5C4)nn12)OC(F)(F)O3` [Example 137, 8-(3-(5H-pyrrolo[3,4-b]pyridin-6(7H)-yl)propyl)-2,2-difluoro-[1,3]dioxolo[4,5-h][1,2,4]triazolo[1,5-c]quinazolin-5-amine], 1.9 nM. The value for `C[C@@H](Cc1nc2c3ccc4c(c3nc(N)n2n1)OC(F)(F)O4)N1CC(C)(F)C1` [Example 88, 2,2-difluoro-8-[(2S)-2-(3-fluoro-3-methylazetidin-1-yl)propyl][1,3] dioxolo[4,5-h][1,2,4]triazolo [1,5-c]quinazolin-5-amine] was 4.8 nM; that for `Nc1nc2c3c(ccc2c2nc(CC(CCl)CCl)nn12)OC(F)(F)O3` [Example 150, 8-[3-chloro-2-(chloromethyl)propyl]-2,2-difluoro[1,3]dioxolo[4,5-h][1,2,4]triiazolo[1,5-c]quinazolin-5-amine] was 2.3 nM.

With `Cc1nc2c(o1)CN([C@H](C)Cc1nc3c4ccc5c(c4nc(N)n3n1)OC(F)(F)O5)CC2` [Example 79, 2,2-difluoro-8-[(2R)-2-(2-methyl-6,7-dihydro[1,3]oxazolo[5,4-c]pyridine-5(4H)-yl)propyl][1,3] dioxolo[4,5-h][1,2,4]triazolo[1,5-c] quinazolin-5-amine], the affinity corresponds to a Ki of 1.3 nM.

Turning to `Nc1nc2c3c(ccc2c2nc(CC4CN(c5ccccn5)C4)nn12)OC(F)(F)O3` [Example 153, 2,2-difluoro-8-[(1-pyridin-2-ylazetidin-3-yl)methyl][1,3] dioxolo[4,5-h][1,2,4]triazolo [1,5-c]quinazolin-5-amine], the affinity, expressed as Ki, was 170 nM. The value for `COCCN1CCC(Cc2nc3c4ccc5c(c4nc(N)n3n2)OC(F)(F)O5)C1` (single isomer, unassigned) [Example 157, (R or S)-2,2-difluoro-8-{[1-(2-methoxyethyl)pyrrolidin-3-yl]methyl}[1,3]dioxolo [4,5-h][1,2,4]triazolo[1,5-c]quinazolin-5-amine] was 75 nM; that for `Nc1nc2c3c(ccc2c2nc(CCN4CC5CC5C4)nn12)OC(F)(F)O3` (stereo not shown) [Example 35, 8-[2-(3-azabicyclo[3.1.0]hex-3-yl)ethyl]-2,2-difluoro[1,3] dioxolo[4,5-h][1,2,4]triazolo [1,5-c]quinazolin-5-amine] was 3 nM.

With `CC(Cc1nc2c3ccc4c(c3nc(N)n2n1)OC(F)(F)O4)N1Cc2cccnc2C1` (single isomer, unassigned) [Example 91, 8-[(2R or 2S)-2-(5,7-dihydro-6H-pyrrolo[3,4-b]pyridin-6-yl)propyl]-2,2-difluoro[1,3]dioxolo[4,5-h][1,2,4]triazolo[1,5-c]quinazolin-5-amine], the Ki came to 1.2 nM.

With `Nc1nc2c3c(ccc2c2nc(CCN4Cc5ccc(C(F)(F)F)cc5C4)nn12)OC(F)(F)O3` [Example 7, 2,2-difluoro-8-{2-[5-(trifluoromethyl)-1,3-dihydro-2H-isoindol-2-yl]ethyl}[1,3]-dioxolo[4,5-h][1,2,4]triazolo [1,5-c]quinazolin-5-amine], the affinity, expressed as Ki, was 3.1 nM.

Molecule `Cc1nc2c3ccc4c(c3nc(N)n2n1)OC(F)(F)O4` [Example 2, 2,2-difluoro-8-methyl-[1,3]dioxolo[4,5-h][1,2,4]triazolo[1,5-c]quinazolin-5-amine] returned a Ki of 6.2 nM. Under `C[C@H](Cc1nc2c3ccc4c(c3nc(N)n2n1)OC(F)(F)O4)N1CC(C)(F)C1` [Example 84, 2,2-difluoro-8-[(2R)-2-(3-fluoro-3-methylazetidin-1-yl)propyl][1,3] dioxolo[4,5-h][1,2,4]triazolo[1,5-c]quinazolin-5-amine] stands 4.9 nM; under `Cc1cc(C)n(Cc2nc3c4ccc5c(c4nc(N)n3n2)OC(F)(F)O5)n1` [Example 129, 8-[(3,5-dimethyl-1H-pyrazol-1-yl)methyl]-2,2-difluoro[1,3]dioxolo[4,5-h][1,2,4]triazolo[1,5-c]quinazolin-5-amine], 1 nM; under `Nc1nc2c3c(ccc2c2nc(CC4CCN(CC(F)F)C4)nn12)OC(F)(F)O3` (single isomer, unassigned) [Example 156, (R or S)-8-{[1-(2,2-difluoroethyl)pyrrolidin-3-yl]methyl}-2,2-difluoro[1,3]dioxolo[4,5-h][1,2,4]triazolo[1,5-c]quinazolin-5-amine], 5.3 nM. The molecule `Nc1nc2c3c(ccc2c2nc(C4CCCN(c5cncnc5)C4)nn12)OC(F)(F)O3` (single isomer, unassigned) [Example 146, (R or S)-2,2-difluoro-8-(1-pyrimidin-5-ylpiperidin-3-yl)[1,3]dioxolo[4,5-h][1,2,4]triazolo[1,5-c]quinazolin-5-amine] registered a Ki of 44 nM. Under `Nc1nc2c3c(ccc2c2nc(CN4Cc5cnc(C(F)(F)F)nc5C4)nn12)OC(F)(F)O3` [Example 121, 2,2-difluoro-8-{[2-(trifluoromethyl)-5,7-dihydro-6H-pyrrolo[3,4-d]pyrimidin-6-yl]methyl}[1,3]dioxolo [4,5-h][1,2,4]triazolo[1,5-c]quinazolin-5-amine] stands 16 nM. The value for `CCC1(F)CN(Cc2nc3c4ccc5c(c4nc(N)n3n2)OC(F)(F)O5)C1` [Example 112, 8-[(3-ethyl-3-fluoroazetidin-1-yl)methyl]-2,2-difluoro[1,3] dioxolo[4,5-h][1,2,4]triazolo[1,5-c]quinazolin-5-amine] was 2 nM. The value for `Nc1nc2c3c(ccc2c2nc([C@H]4CC[C@H](N5CCCC(F)(F)C5)C4)nn12)OC(F)(F)O3` [Example 160, 8-[(1S,3S)-3-(3,3-difluoropiperidin-1-yl)cyclopentyl]-2,2-difluoro[1,3]dioxolo[4,5-h][1,2,4]triazolo[1,5-c]quinazolin-5-amine] was 16 nM. `Nc1nc2c3c(ccc2c2nc(CN4CCN(c5ccc(F)cc5)CC45CC5)nn12)OC(F)(F)O3` [Example 102, 2,2-difluoro-8-((7-(4-fluorophenyl)-4,7-diazaspiro[2.5]octan-4-yl)methyl)-[1,3]dioxolo[4,5-h][1,2,4]triazolo[1,5-c]quinazolin-5-amine] had a Ki of 3.5 nM.

A word on the Ki: it is a measure of affinity in units of concentration, obtained from inhibition or displacement. Read a low Ki as higher affinity.
